The NIST ThermoML archive (doi:10.1016/j.jct.2018.01.025)
Values joined by “and” are separate entries in the source; they are usually repeats but may differ in a detail not shown here. Identical values can stand only once.

Details: Liquid; for mass density: Vibrating tube method

CCCC[n+]1cccc(C)c1.O=S(=O)([N-]S(=O)(=O)C(F)(F)F)C(F)(F)F
Details	viscosity
278.15 K, 101.33 kPa, Concentric cylinders viscometry	201 mPa·s
283.15 K, 101.33 kPa, Concentric cylinders viscometry	146.3 mPa·s
288.13 K, 101.33 kPa, Vibrating wire viscometry	107.09 mPa·s
288.15 K, 101.33 kPa, Concentric cylinders viscometry	109.5 mPa·s
292.95 K, 101.33 kPa, Vibrating wire viscometry	83.24 mPa·s
293.15 K, 101.33 kPa, Concentric cylinders viscometry	84.1 mPa·s
296.3 K, 101.33 kPa, Vibrating wire viscometry	71.15 mPa·s
298.15 K, 101.33 kPa, Concentric cylinders viscometry	65.6 mPa·s
298.25 K, 101.33 kPa, Vibrating wire viscometry	65 mPa·s and 64.91 mPa·s
300.55 K, 101.33 kPa, Vibrating wire viscometry	58.21 mPa·s
302.98 K, 101.33 kPa, Vibrating wire viscometry	52.92 mPa·s
303.15 K, 101.33 kPa, Concentric cylinders viscometry	52.31 mPa·s
303.15 K, 10000 kPa, Falling or rolling sphere viscometry	58.6 mPa·s
303.15 K, 15000 kPa, Falling or rolling sphere viscometry	62.3 mPa·s
303.15 K, 25000 kPa, Falling or rolling sphere viscometry	70.4 mPa·s
303.15 K, 50000 kPa, Falling or rolling sphere viscometry	94.7 mPa·s
303.15 K, 75000 kPa, Falling or rolling sphere viscometry	126.3 mPa·s
307.84 K, 101.33 kPa, Vibrating wire viscometry	43.69 mPa·s
308.15 K, 101.33 kPa, Concentric cylinders viscometry	42.36 mPa·s
310.19 K, 101.33 kPa, Vibrating wire viscometry	40.27 mPa·s
313.15 K, 101.33 kPa, Concentric cylinders viscometry	35.01 mPa·s
313.15 K, 10000 kPa, Falling or rolling sphere viscometry	40.1 mPa·s
313.15 K, 15000 kPa, Falling or rolling sphere viscometry	42.3 mPa·s
313.15 K, 25000 kPa, Falling or rolling sphere viscometry	47.2 mPa·s
313.15 K, 50000 kPa, Falling or rolling sphere viscometry	61.7 mPa·s
313.15 K, 75000 kPa, Falling or rolling sphere viscometry	80.5 mPa·s
313.15 K, 100000 kPa, Falling or rolling sphere viscometry	104.9 mPa·s
318.15 K, 101.33 kPa, Concentric cylinders viscometry	29.01 mPa·s
323.15 K, 101.33 kPa, Concentric cylinders viscometry	24.47 mPa·s
323.15 K, 10000 kPa, Falling or rolling sphere viscometry	27.2 mPa·s
323.15 K, 15000 kPa, Falling or rolling sphere viscometry	28.7 mPa·s
323.15 K, 25000 kPa, Falling or rolling sphere viscometry	32 mPa·s
323.15 K, 50000 kPa, Falling or rolling sphere viscometry	41.6 mPa·s
323.15 K, 75000 kPa, Falling or rolling sphere viscometry	53.5 mPa·s
323.15 K, 100000 kPa, Falling or rolling sphere viscometry	68.5 mPa·s
328.15 K, 101.33 kPa, Concentric cylinders viscometry	20.87 mPa·s
333.15 K, 101.33 kPa, Concentric cylinders viscometry	17.97 mPa·s
333.15 K, 10000 kPa, Falling or rolling sphere viscometry	20 mPa·s
333.15 K, 15000 kPa, Falling or rolling sphere viscometry	20.8 mPa·s
333.15 K, 25000 kPa, Falling or rolling sphere viscometry	22.8 mPa·s
333.15 K, 50000 kPa, Falling or rolling sphere viscometry	29.2 mPa·s
333.15 K, 75000 kPa, Falling or rolling sphere viscometry	37.2 mPa·s
333.15 K, 100000 kPa, Falling or rolling sphere viscometry	46.3 mPa·s
338.15 K, 101.33 kPa, Concentric cylinders viscometry	15.61 mPa·s
343.15 K, 101.33 kPa, Concentric cylinders viscometry	13.68 mPa·s
343.15 K, 10000 kPa, Falling or rolling sphere viscometry	14.8 mPa·s
343.15 K, 15000 kPa, Falling or rolling sphere viscometry	15.7 mPa·s
343.15 K, 25000 kPa, Falling or rolling sphere viscometry	17.4 mPa·s
343.15 K, 50000 kPa, Falling or rolling sphere viscometry	21.7 mPa·s
343.15 K, 75000 kPa, Falling or rolling sphere viscometry	26.7 mPa·s
343.15 K, 100000 kPa, Falling or rolling sphere viscometry	33.2 mPa·s
348.15 K, 101.33 kPa, Concentric cylinders viscometry	12.07 mPa·s
353.15 K, 101.33 kPa, Concentric cylinders viscometry	10.78 mPa·s
353.15 K, 10000 kPa, Falling or rolling sphere viscometry	11.5 mPa·s
353.15 K, 15000 kPa, Falling or rolling sphere viscometry	12.1 mPa·s
353.15 K, 25000 kPa, Falling or rolling sphere viscometry	13.2 mPa·s
353.15 K, 50000 kPa, Falling or rolling sphere viscometry	16.4 mPa·s
353.15 K, 75000 kPa, Falling or rolling sphere viscometry	20.2 mPa·s
353.15 K, 100000 kPa, Falling or rolling sphere viscometry	24.8 mPa·s
358.15 K, 101.33 kPa, Concentric cylinders viscometry	9.59 mPa·s
363.15 K, 101.33 kPa, Concentric cylinders viscometry	8.63 mPa·s
368.15 K, 101.33 kPa, Concentric cylinders viscometry	7.8 mPa·s
373.15 K, 101.33 kPa, Concentric cylinders viscometry	7.09 mPa·s

101.33 kPa
Details	mass density [kg/m3]
278.15 K	1431.3
283.15 K	1426.4
288.15 K	1421.6
293.15 K	1416.9
298.15 K	1412.3
303.15 K	1407.8
308.15 K	1403.2
313.15 K	1398.7
318.15 K	1394.3
323.15 K	1389.8
328.15 K	1385.4
333.15 K	1380.9
338.15 K	1376.4
343.15 K	1372
348.15 K	1367.5
353.15 K	1362.9
358.15 K	1358.3
363.15 K	1353.9
368.15 K	1349.6
373.15 K	1345.4

CCOS(=O)(=O)[O-].CCn1cc[n+](C)c1 [1-ethyl-3-methylimidazolium ethyl sulfate]
101.33 kPa
Details	viscosity
278.15 K, Concentric cylinders viscometry	329 mPa·s
283.15 K, Concentric cylinders viscometry	234.5 mPa·s
288.15 K, Concentric cylinders viscometry	172.2 mPa·s
293.15 K, Concentric cylinders viscometry	130.1 mPa·s
298.15 K, Concentric cylinders viscometry	100 mPa·s
298.52 K, Vibrating wire viscometry	97.32 mPa·s and 98.21 mPa·s
303.15 K, Concentric cylinders viscometry	78.66 mPa·s
303.34 K, Vibrating wire viscometry	76.57 mPa·s
303.38 K, Vibrating wire viscometry	76.99 mPa·s
303.64 K, Vibrating wire viscometry	76.57 mPa·s
308.15 K, Concentric cylinders viscometry	62.99 mPa·s
308.21 K, Vibrating wire viscometry	61.5 mPa·s
313.15 K, Concentric cylinders viscometry	51.59 mPa·s
313.23 K, Vibrating wire viscometry	51.09 mPa·s
313.24 K, Vibrating wire viscometry	50.47 mPa·s
318.15 K, Concentric cylinders viscometry	42.36 mPa·s
318.43 K, Vibrating wire viscometry	41.55 mPa·s
322.6 K, Vibrating wire viscometry	36.51 mPa·s
323.02 K, Vibrating wire viscometry	35.9 mPa·s
323.15 K, Concentric cylinders viscometry	35.43 mPa·s
328.15 K, Concentric cylinders viscometry	29.98 mPa·s
333.15 K, Concentric cylinders viscometry	25.64 mPa·s
338.15 K, Concentric cylinders viscometry	22.13 mPa·s
343.15 K, Concentric cylinders viscometry	19.27 mPa·s
348.15 K, Concentric cylinders viscometry	16.91 mPa·s
353.15 K, Concentric cylinders viscometry	15.03 mPa·s
358.15 K, Concentric cylinders viscometry	13.3 mPa·s
363.15 K, Concentric cylinders viscometry	11.9 mPa·s
368.15 K, Concentric cylinders viscometry	10.71 mPa·s
373.15 K, Concentric cylinders viscometry	9.69 mPa·s

101.33 kPa
Details	mass density [kg/m3]
278.15 K	1251.2
283.15 K	1247.3
288.15 K	1243.7
293.15 K	1240.1
298.15 K	1236.7
303.15 K	1233.3
308.15 K	1229.9
313.15 K	1226.5
318.15 K	1223.2
323.15 K	1219.9
328.15 K	1216.6
333.15 K	1213.4
338.15 K	1210.2
343.15 K	1206.9
348.15 K	1203.6
353.15 K	1200.1
358.15 K	1196.6
363.15 K	1193.4
368.15 K	1190.5
373.15 K	1187.4
